Reference: patent publication US20250230154A1, “COMPOUND HAVING SHP2 PROTEIN DEGRADING ACTIVITY, AND MEDICAL USES THEREOF” (UBIX THERAPEUTICS, INC., priority 2021, published 2025)

Target: T1, SHP2 protein (Homo sapiens, UniProt Q06124)
T1 sequence (Q06124 1-593): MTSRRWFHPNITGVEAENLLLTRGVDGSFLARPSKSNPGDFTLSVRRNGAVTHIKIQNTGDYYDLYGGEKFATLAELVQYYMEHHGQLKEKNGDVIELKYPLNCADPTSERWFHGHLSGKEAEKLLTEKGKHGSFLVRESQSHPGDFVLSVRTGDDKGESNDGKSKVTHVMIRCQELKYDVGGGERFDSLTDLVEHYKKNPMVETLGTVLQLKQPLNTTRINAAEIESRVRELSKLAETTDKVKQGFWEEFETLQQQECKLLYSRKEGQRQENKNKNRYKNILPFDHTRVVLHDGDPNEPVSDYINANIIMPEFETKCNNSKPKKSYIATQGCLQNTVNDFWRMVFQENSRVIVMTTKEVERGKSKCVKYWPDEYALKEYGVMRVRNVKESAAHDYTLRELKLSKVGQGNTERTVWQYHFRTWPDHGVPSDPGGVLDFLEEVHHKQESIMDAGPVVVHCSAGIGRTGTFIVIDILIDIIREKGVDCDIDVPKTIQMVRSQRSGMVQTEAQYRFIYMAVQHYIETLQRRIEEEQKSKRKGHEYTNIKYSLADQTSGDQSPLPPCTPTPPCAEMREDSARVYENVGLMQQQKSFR
Experiment: Measurement of SHP2 protein degradation in MV-4-11 cells (western blotting)
Assay type: cell-based
Design: endogenous in cells; host or cells: MV-4-11
Settings: for SHP2 protein degradation activity (in words): comment on Table 4
Procedure, shortened: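 SHP2 protein levels were assessed by western blotting in MV-4-11 cells after a 24 hour compound treatment. Lysates were sonicated, centrifuged, normalized by BCA assay at 562 nm, run on Bis-tris 4-12% gels, transferred to NC membrane, probed with anti-SHPTP2 (70 kDa) and anti-GAPDH (37 kDa) antibodies, and detected on LI-COR Odyssey.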

Row | SHP2 degradation (%) 10 nM (MV-4-11 cells, 24 hours) [%] | SHP2 degradation (%) 100 nM (MV-4-11 cells, 24 hours) [%] | SHP2 protein degradation activity (in words) | SHP2 degradation (%) 1000 nM (MV-4-11 cells, 1000 nM, 24 hours) [%] | Structure (SMILES)
1 | 0.1 | 52.3 | somewhat decreased | – | Cc1ncsc1-c1ccc(CNC(=O)[C@@H]2C[C@@H](O)CN2C(=O)[C@@H](NC(=O)C2(F)CC2)C(C)(C)C)c(OCC2CCN(C(=O)C3(C(=O)Nc4cccc(Sc5cnc(N6CCC(C)(CN)CC6)cn5)c4Cl)CC3)CC2)c1 [Example 46, (2S,4R)—N-(2-((1-(1-((3-((5-(4-(aminomethyl)-4-methylpiperidin-1-yl)pyrazin-2-yl)thio)-2-chlorophenyl)carbamoyl)cyclopropane-1-carbonyl)piperidin-4-yl)methoxy)-4-(4-methylthiazol-5-yl)benzyl)-1-((S)-2-(1-fluorocyclopropane-1-carboxamido)-3,3-dimethylbutanoyl)-4-hydroxypyrrolidine-2-carboxamide]
2 | −2.5 | 21.1 | somewhat decreased | – | Cc1ncsc1-c1ccc(CNC(=O)[C@@H]2C[C@@H](O)CN2C(=O)[C@@H](NC(=O)C2(F)CC2)C(C)(C)C)c(OCCC2CCN(C(=O)C3(C(=O)Nc4cccc(Sc5cnc(N6CCC(C)(CN)CC6)cn5)c4Cl)CC3)CC2)c1 [Example 47, (2S,4R)—N-(2-(2-(1-(1-((3-((5-(4-(aminomethyl)-4-methylpiperidin-1-yl)pyrazin-2-yl)thio)-2-chlorophenyl)carbamoyl)cyclopropane-1-carbonyl)piperidin-4-yl)ethoxy)-4-(4-methylthiazol-5-yl)benzyl)-1-((S)-2-(1-fluorocyclopropane-1-carboxamido)-3,3-dimethylbutanoyl)-4-hydroxypyrrolidine-2-carboxamide]
3 | 18.6 | 57.3 | somewhat decreased | – | Cc1ncsc1-c1ccc(CNC(=O)[C@@H]2C[C@@H](O)CN2C(=O)[C@@H](NC(=O)C2(F)CC2)C(C)(C)C)c(OCCCC2CCN(C(=O)C3(C(=O)Nc4cccc(Sc5cnc(N6CCC(C)(CN)CC6)cn5)c4Cl)CC3)CC2)c1 [Example 48, (2S,4R)—N-(2-(3-(1-(1-((3-((5-(4-(aminomethyl)-4-methylpiperidin-1-yl)pyrazin-2-yl)thio)-2-chlorophenyl)carbamoyl)cyclopropane-1-carbonyl)piperidin-4-yl)propoxy)-4-(4-methylthiazol-5-yl)benzyl)-1-((S)-2-(1-fluorocyclopropane-1-carboxamido)-3,3-dimethylbutanoyl)-4-hydroxypyrrolidine-2-carboxamide]
4 | 4.0 | 10.6 | somewhat decreased | – | Cc1ncsc1-c1ccc(CNC(=O)[C@@H]2C[C@@H](O)CN2C(=O)[C@@H](NC(=O)C2(F)CC2)C(C)(C)C)c(OCCC2CCN(C(=O)C(C)(C)C(=O)Nc3cccc(Sc4cnc(N5CCC(C)(CN)CC5)cn4)c3Cl)CC2)c1 [Example 49, (2S,4R)—N-(2-(2-(1-(3-((3-((5-(4-(aminomethyl)-4-methylpiperidin-1-yl)pyrazin-2-yl)thio)-2-chlorophenyl)amino)-2,2-dimethyl-3-oxopropanoyl)piperidin-4-yl)ethoxy)-4-(4-methylthiazol-5-yl)benzyl)-1-((S)-2-(1-fluorocyclopropane-1-carboxamido)-3,3-dimethylbutanoyl)-4-hydroxypyrrolidine-2-carboxamide]
5 | 91.5 | 98.4 | – | – | Cc1ncsc1-c1ccc(CNC(=O)[C@@H]2C[C@@H](O)CN2C(=O)[C@@H](NC(=O)C2(F)CC2)C(C)(C)C)c(OC2CC3(CCN(C(=O)CC(=O)Nc4cccc(Sc5cnc(N6CCC(C)(CN)CC6)cn5)c4Cl)CC3)C2)c1 [Example 50, (2S,4R)—N-(2-((7-(3-((3-((5-(4-(aminomethyl)-4-methylpiperidin-1-yl)pyrazin-2-yl)thio)-2-chlorophenyl)amino)-3-oxopropanoyl)-7-azaspiro[3.5]nonan-2-yl)oxy)-4-(4-methylthiazol-5-yl)benzyl)-1-((S)-2-(1-fluorocyclopropane-1-carboxamido)-3,3-dimethylbutanoyl)-4-hydroxypyrrolidine-2-carboxamide]
6 | 4.7 | 74.1 | – | – | Cc1ncsc1-c1ccc(CNC(=O)[C@@H]2C[C@@H](O)CN2C(=O)[C@@H](NC(=O)C2(F)CC2)C(C)(C)C)c(OC2CC3(CCN(C(=O)CC(=O)N(C)c4cccc(Sc5cnc(N6CCC(C)(CN)CC6)cn5)c4Cl)CC3)C2)c1 [Example 51, (2S,4R)—N-(2-((7-(3-((3-((5-(4-(aminomethyl)-4-methylpiperidin-1-yl)pyrazin-2-yl)thio)-2-chlorophenyl)(methyl)amino)-3-oxopropanoyl)-7-azaspiro[3.5]nonan-2-yl)oxy)-4-(4-methylthiazol-5-yl)benzyl)-1-((S)-2-(1-fluorocyclopropane-1-carboxamido)-3,3-dimethylbutanoyl)-4-hydroxypyrrolidine-2-carboxamide]
7 | 72 | 96 | – | 94.5 | Cc1ncsc1-c1ccc(CNC(=O)[C@@H]2C[C@@H](O)CN2C(=O)[C@@H](NC(=O)C2(F)CC2)C(C)(C)C)c(OCCN2CCN(C(=O)CC(=O)Nc3cccc(Sc4cnc(N5CCC(C)(CN)CC5)cn4)c3Cl)CC2)c1 [Example 52, (2S,4R)—N-(2-(2-(4-(3-((3-((5-(4-(aminomethyl)-4-methylpiperidin-1-yl)pyrazin-2-yl)thio)-2-chlorophenyl)amino)-3-oxopropanoyl)piperazin-1-yl)ethoxy)-4-(4-methylthiazol-5-yl)benzyl)-1-((S)-2-(1-fluorocyclopropane-1-carboxamido)-3,3-dimethylbutanoyl)-4-hydroxypyrrolidine-2-carboxamide]
8 | 83.9 | 97.8 | – | – | Cc1ncsc1-c1ccc(CNC(=O)[C@@H]2C[C@@H](O)CN2C(=O)[C@@H](NC(=O)C2(F)CC2)C(C)(C)C)c(OCCN2CCN(C(=O)CC(=O)Nc3cccc(Sc4cnc(N5CCC(C)(N)CC5)cn4)c3Cl)CC2)c1 [Example 53, (2S,4R)—N-(2-(2-(4-(3-((3-((5-(4-amino-4-methylpiperidin-1-yl)pyrazin-2-yl)thio)-2-chlorophenyl)amino)-3-oxopropanoyl)piperazin-1-yl)ethoxy)-4-(4-methylthiazol-5-yl)benzyl)-1-((S)-2-(1-fluorocyclopropane-1-carboxamido)-3,3-dimethylbutanoyl)-4-hydroxypyrrolidine-2-carboxamide]
9 | 85.8 | 98.3 | – | – | Cc1ncsc1-c1ccc(CNC(=O)[C@@H]2C[C@@H](O)CN2C(=O)[C@@H](NC(=O)C2(F)CC2)C(C)(C)C)c(OCCN2CCN(C(=O)CC(=O)Nc3cccc(Sc4ncc(N5CCC(C)(N)CC5)nc4N)c3Cl)CC2)c1 [Example 54, (2S,4R)—N-(2-(2-(4-(3-((3-((3-amino-5-(4-amino-4-methylpiperidin-1-yl)pyrazin-2-yl)thio)-2-chlorophenyl)amino)-3-oxopropanoyl)piperazin-1-yl)ethoxy)-4-(4-methylthiazol-5-yl)benzyl)-1-((S)-2-(1-fluorocyclopropane-1-carboxamido)-3,3-dimethylbutanoyl)-4-hydroxypyrrolidine-2-carboxamide]
10 | 85.9 | 97.8 | – | – | Cc1ncsc1-c1ccc(CNC(=O)[C@@H]2C[C@@H](O)CN2C(=O)[C@@H](NC(=O)C2(F)CC2)C(C)(C)C)c(OCCN2CCN(C(=O)CC(=O)Nc3cccc(Sc4ncc(N5CCC(C)(CN)CC5)nc4N)c3Cl)CC2)c1 [Example 55, (2S,4R)—N-(2-(2-(4-(3-((3-((3-amino-5-(4-(aminomethyl)-4-methylpiperidin-1-yl)pyrazin-2-yl)thio)-2-chlorophenyl)amino)-3-oxopropanoyl)piperazin-1-yl)ethoxy)-4-(4-methylthiazol-5-yl)benzyl)-1-((S)-2-(1-fluorocyclopropane-1-carboxamido)-3,3-dimethylbutanoyl)-4-hydroxypyrrolidine-2-carboxamide]
11 | 91.4 | 98.9 | – | – | Cc1ncsc1-c1ccc(CNC(=O)[C@@H]2C[C@@H](O)CN2C(=O)[C@@H](NC(=O)C2CC2)C(C)(C)C)c(OCCN2CCN(C(=O)CC(=O)Nc3cccc(Sc4cnc(N5CCC(C)(CN)CC5)cn4)c3Cl)CC2)c1 [Example 56, (2S,4R)—N-(2-(2-(4-(3-((3-((5-(4-(aminomethyl)-4-methylpiperidin-1-yl)pyrazin-2-yl)thio)-2-chlorophenyl)amino)-3-oxopropanoyl)piperazin-1-yl)ethoxy)-4-(4-methylthiazol-5-yl)benzyl)-1-((S)-2-(cyclopropanecarboxamido)-3,3-dimethylbutanoyl)-4-hydroxypyrrolidine-2-carboxamide]
